Measured values reported in patent US20120149645A1, “COMPOSITIONS AND MODULATION OF MYOCYTE ENHANCER FACTOR 2 (MEF2)” (EMORY UNIVERSITY, priority 2010, published 2012).

Key:
[1] = tested on: TH+ neurons in SNpc; test: MPTP mouse model of PD, TH immunohistochemistry in SNpc; conditions: mice, chronic MPTP exposure; SNpc and striatum
Experimental: (B) Role of mitochondrial MEF2D-ND6 pathway in maintaining TH+ neurons in SNpc in a MPTP mouse model of PD. For each group, three mice received stereotactical injection of control vector (GFP) or Mt2Ddn lentivirus in SN. Two weeks later, mice were exposed to MPTP. After treatment for seven days, the survival of lentivirus-transduced TH+ neurons in SN was determined by immunohistochemistry (left panel). Quantitative analysis of nine mice from three independent experiments was shown at the bottom panel (scale bar, 30 μm; **P<0.01).

[2] = tested on: mitochondrial MEF2D and ND6; test: MPTP mouse model, western blotting of mitochondria purified from brain SNpc; type: in vivo; conditions: chronic intraperitoneal MPTP vs saline treated controls
Experimental: For each group, six eight-week-old mice received chronic intraperitoneal injections of MPTP-HCl in saline or saline alone were killed on 5 or 20 days after injection. Mitochondria purified from brain SNpc region were analyzed by western blotting. Experiments were repeated three times. […] For each group, three mice received stereotactical injection of control vector (GFP) or Mt2Ddn lentivirus in SN. Two weeks later, mice were exposed to MPTP. After treatment for seven days, the survival of lentivirus-transduced TH+ neurons in SN was determined by immunohistochemistry (left panel). Quantitative analysis of nine mice from three independent experiments was shown at the bottom panel (scale bar, 30 μm; **P<0.01). […] Mitochondria were purified from brain striata of postmortem PD patients and controls (normal). Equal amounts of mitochondrial proteins were subjected to western blotting (upper panel). Quantitative analysis of the bands was shown at the right panel (n=13 patients and 13 controls, *P<0.01). Experiments were repeated two times.
Mitochondria were purified from brain tissue using discontinuous sucrose gradient method. Briefly, brain homogenate was made in ice-cold homo-buffer (0.32 M sucrose, 20 mM Tris-HCl, pH 7.4) and spun at 900×g, 4° C. for 10 min. The supernatant was transferred to another clean tube and spun at 10,000×g, 4° C. for 10 min. […]

[3] = biological target: MEF2D (1-91) (UniProt Q63943 Q63943:1-91); test: EMSA; 10 ng protein, on ice 30 min; conditions: tags: GST fusion (N-terminal GST); label: 32P
Chain of MEF2D (1-91) (Q63943 1-91, one chain of several): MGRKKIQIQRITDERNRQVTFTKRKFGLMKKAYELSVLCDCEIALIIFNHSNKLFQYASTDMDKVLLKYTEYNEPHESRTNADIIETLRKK

| Molecule | immunohistochemical signal for tyrosine hydroxylase (TH) [1] | level of ND6 protein in mouse brain [2] | mitochondrial MEF2D in mouse brain [2] | binding result [3] |
| --- | --- | --- | --- | --- |
| CN1CC=C(c2ccccc2)CC1 [MPTP, 1-methyl 4-phenyl 1,2,3,6-tetrahydropyridine] | loss | clear decline | significant reduction |  |
| ND6 MEF2 site probe WT (dsDNA) DNA 1: CTAAACCCCCATAAATAGGAGAAGGCTT DNA 2: AAGCCTTCTCCTATTTATGGGGGTTTAG |  |  |  | binds |
